Assay results: patent US20050113419A1, “Therapeutic compounds for treating dyslipidemic conditions” (priority 2003, published 2005)

Columns and labels:
[1] = system: Caco-2 cells; test: Cholesterol efflux from cultured human Caco-2 cells; format: cell-based; conditions: 10 μg/ml apoA-I, 24 hours, mean of quadruplicate incubations
Protocol: Caco-2 cells, which are of human origin, were obtained from ATCC and grown in Opti-MEM (Gibco #51985-034) containing 10% FCS, non-essential amino acids (Gibco #11140-050), and vitamins (Gibco # 11120-052). Caco-2 cells were plated at 100,000 cells/well in 48-well plates. After four days the cells had reached confluence, and were then labeled with ^3H-cholesterol by incubation for 24 hours in fresh growth media containing ^3H-cholesterol (10 μCi/mi). Following labeling with ^3H-cholesterol, cells were washed and incubated an additional 24 hours in serum-free media containing 1 mg/ml BSA, to allow for equilibration of ^3H-cholesterol with intracellular cholesterol. Cholesterol efflux was initiated by adding 10 μg/ml apoA-I, with or without compound, in serum-free medium. Compounds were added to cell culture medium from DMSO solutions, and control cells received an equivalent amount of DMSO, never exceeding 0.1%. After 24 hours, media were harvested and cells dissolved in 0.1 M NaOH. Media were briefly centrifuged to remove non-adherent cells, and then aliquots of both the supernatants and the dissolved cells were subjected to liquid scintillation spectrometry to determine radioactivity. Cholesterol efflux is expressed as a percentage, calculated as (^3H-cholesterol in riedium/(^3H-cholesterol in medium+^3H-cholesterol in cells))×100.

[2] = target: T1, human LXRα (Homo sapiens, UniProt Q13133); test: Radioligand competition binding scintillation proximity assay, LXRα
T1 construct: made in house; host or cells: E. coli (pGEX-KT vector)
T1 sequence (Q13133 164-447): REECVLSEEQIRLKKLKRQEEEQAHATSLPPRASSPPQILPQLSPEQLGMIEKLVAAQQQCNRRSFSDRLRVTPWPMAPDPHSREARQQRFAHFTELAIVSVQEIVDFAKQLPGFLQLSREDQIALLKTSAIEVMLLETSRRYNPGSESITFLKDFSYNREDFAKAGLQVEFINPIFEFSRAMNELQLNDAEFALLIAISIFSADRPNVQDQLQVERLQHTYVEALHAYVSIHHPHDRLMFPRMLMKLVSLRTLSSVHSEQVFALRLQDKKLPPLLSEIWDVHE
From the text: Radioligand Competition Binding Scintillation Proximity Assays

Kd [2] [nM]	SMILES	% cholesterol efflux ([1]; compound 30 nM) [%]	% cholesterol efflux ([1]; compound 100 nM) [%]	% cholesterol efflux ([1]; compound 300 nM) [%]	% cholesterol efflux ([1]; compound 1000 nM) [%]	% cholesterol efflux ([1]; compound 3000 nM) [%]	% cholesterol efflux ([1]; compound 10000 nM) [%]
	CCCc1c(OCCCN(C)C(=O)Nc2ccccn2)ccc2c(C(F)(F)F)noc12 [Compound (18), N′-(2-pyridyl)-N-methyl-N-(3-{[7-propyl-3-(trifluoromethyl)-1,2-benzisoxazol-6-yl]oxy}propyl)urea]	3.4	3.5	4.9	5.7	6.8	5.6
~15	CCCc1c(OCCCSc2ccc(CC(=O)O)cc2Cl)ccc2c(C(F)(F)F)noc12 [Compound A]						
